Data as given in patent US20090253687A1, “Fused Heterocyclic Compounds and Their Use as Mineralocorticoid Receptor Ligands” (priority 2005, published 2009).

Experiments:
[1] = biological target: T1, Human Mineralocorticoid Receptor (hMR) (Homo sapiens, UniProt P08235); assay: Inhibition of binding of [3H]-aldosterone to hMR (lysate of FreeStyle 293 cells expressing hMR); conditions: compound at 10^−5 M; 10 nM [3H]-aldosterone; hMR lysate 1.0 mg/ml; 16 hr at 4° C.; read-out: Inhibition rate (at 10^−5 M)
T1 construct: Full-length cDNA was constructed from two fragments of hMR cDNA amplified separately; expressed in transfected cells; host or cells: FreeStyle 293 cells transiently transfected with pMCMVneo-hMR; supernatant of the freeze-thaw lysate after ultracentrifugation
T1 sequence (P08235 1-984): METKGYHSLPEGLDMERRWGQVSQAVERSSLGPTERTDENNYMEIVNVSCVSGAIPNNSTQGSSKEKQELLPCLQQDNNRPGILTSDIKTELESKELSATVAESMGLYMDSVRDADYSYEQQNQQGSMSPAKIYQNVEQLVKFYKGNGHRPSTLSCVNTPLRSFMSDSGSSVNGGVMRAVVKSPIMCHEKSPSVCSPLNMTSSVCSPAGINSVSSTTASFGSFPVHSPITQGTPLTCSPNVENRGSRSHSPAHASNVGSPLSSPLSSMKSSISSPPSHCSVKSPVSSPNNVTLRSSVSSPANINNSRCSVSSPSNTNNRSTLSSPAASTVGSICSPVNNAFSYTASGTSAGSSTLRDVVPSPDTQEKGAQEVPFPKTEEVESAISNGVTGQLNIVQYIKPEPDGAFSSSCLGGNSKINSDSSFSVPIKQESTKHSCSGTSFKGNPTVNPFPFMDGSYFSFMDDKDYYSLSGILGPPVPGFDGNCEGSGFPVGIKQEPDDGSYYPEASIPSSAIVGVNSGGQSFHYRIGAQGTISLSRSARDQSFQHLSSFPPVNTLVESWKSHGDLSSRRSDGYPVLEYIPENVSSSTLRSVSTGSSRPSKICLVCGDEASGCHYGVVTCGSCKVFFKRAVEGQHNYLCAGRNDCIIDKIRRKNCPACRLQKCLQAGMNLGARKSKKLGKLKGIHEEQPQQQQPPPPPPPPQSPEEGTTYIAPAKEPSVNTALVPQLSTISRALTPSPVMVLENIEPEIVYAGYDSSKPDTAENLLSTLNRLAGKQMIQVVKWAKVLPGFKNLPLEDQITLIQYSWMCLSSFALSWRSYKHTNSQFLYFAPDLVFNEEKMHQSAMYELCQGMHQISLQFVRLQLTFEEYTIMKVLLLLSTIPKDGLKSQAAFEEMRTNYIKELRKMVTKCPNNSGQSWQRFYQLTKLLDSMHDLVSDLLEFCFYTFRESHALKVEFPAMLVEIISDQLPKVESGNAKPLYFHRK
Protocol: The following procedures described in this Example were carried out according to the methods described in Molecular Cloning—Cold Spring Harbor Laboratory (1989) or protocols specified by manufacturers. (1) Cloning of Human Mineralocorticoid Receptor (hMR) cDNA hMR cDNA was amplified by polymerase chain reaction (PCR) from human kidney cDNA library. Full-length cDNA was constructed from two fragments of hMR cDNA amplified separately. The primers were designed referring to the nucleotide sequence of hMR cDNA reported by Arriza et. al (Science 1987; 237: 268-275). The PCR reactions were carried out using Pyrobest® DNA polymerase (Takara). The PCR products were electrophoresed in agarose gel, and 1.7 kb (region (i)) and 1.5 kb (region (ii)) DNA fragments were recovered. Each DNA fragment was inserted into pCR®4Blunt-TOPO® vector (Invitrogen). The resulting plasmids thus obtained were designated as pB-hMR (i) and pB-hMR (ii). To obtain the full-length hMR cDNA, pB-hMR (i) was digested with XhoI and PvuI, and pB-hMR (ii) was digested with PvuI and KpnI, respectively, and the two cDNA fragments were ligated into pBlueScript®IISK+ vector (Stratagene). The resulting plasmid thus obtained was designated as pB-hMR. (2) Construction of hMR Expression Plasmid pMCMVneo (described in WO03/099793) was digested with XhoI and KpnI, and 5.6 kb fragment was ligated with 2.9 kb hMR cDNA fragment obtained by digestion of pB-hMR (described in above (1)) with XhoI and KpnI. The plasmid thus obtained was designated as pMCMVneo-hMR. (3) Expression of hMR in FreeStyle 293 Cells and Preparation of Cell Lysate FreeStyle 293 cells were inoculated at 1×10^8 cells in 93 ml FreeStyle™ 293 Expression Medium (Invitrogen) in a 500 ml Erlenmeyer flask and cultured at 37° C. under 8% CO2 for 1 hr. The cells were treated with 6.7 ml of the transfection mixture containing 100 μg of pMCMVneo-hMR obtained in above (2) and 133 μl of FreeStyle™ 293 Transfection Reagent (Invitrogen). The transfected cells were cultivated for 48 hr at 37° C. in 8% CO2 atmosphere. The cultivated cells were centrifuged and washed with TEG buffer (10 mM Tris-HCl (pH 7.2), 50 mM EDTA, 10% glycerol), and resuspended in 10 ml TEGM buffer (10 mM Tris-HCl (pH 7.2), 1 mM EDTA, 10% glycerol, 1 mM β-mercaptoethanol, 10 mM sodium molybdate, 1 mM dithiothreitol, 2 tablets/100 ml of protease inhibitor cocktail tablets (Roche)). The cell suspension was frozen with liquid nitrogen and thawed on ice, and ultra-centrifuged at 225,000×g for 20 min at 4° C. The supernatant fraction including hMR (hMR lysate) was collected and stored at −80° C. (4) Measurement of Inhibition Activity Against Binding of hMR and Aldosterone [^3H]-Aldosterone (Amersham Biosciences) as ligand was added at 10 nM to the reaction mixture including test compound at various concentration and hMR lysate (1.0 mg/ml) obtained in above (3) and mixture was filled up to 50.5 μl with TEGM buffer. The reaction mixture was incubated for 16 hr at 4° C. and 35 μl of dextran/gelatin coated charcoal suspension (5% charcoal, 0.5% dextran T-70 (Amersham Biosciences), 0.1% gelatin (SIGMA), 10 mM Tris HCl (pH 7.2), 1 mM EDTA) was added thereto to separate bound and free radioactive aldosterone. The mixture containing charcoal was incubated for 10 min at 4° C. and centrifuged at 910×g for 10 min at 4° C. Radioactivity in 30 μl of the supernatant was measured by TopCount™ (Packard). For the determination of nonspecific binding, cold Aldosterone instead of drug was added to reaction mixture at 100 μM. Specific binding was determined by subtracting nonspecific binding from total binding.

| SMILES | melting point [°C] | inhibition at 10 µM [1] [%] |
| --- | --- | --- |
| O=C1COc2ccc(C3=Cc4ccccc4[S+]([O-])C3c3ccccc3)cc2N1 (stereo not shown) [Example 22, 6-(1-oxido-2-phenyl-2H-thiochromen-3-yl)-2H-1,4-benzoxazin-3(4H)-one] | 228 | – |
| Cc1cc(Cl)ccc1-n1nc(C(F)(F)F)cc1-c1ccc2c(c1)NC(=O)CO2 [Example 86, 6-(1-(4-chloro-2-methylphenyl)-3-(trifluoromethyl)-1H-pyrazol-5-yl)-2H-benzo[b][1,4]oxazin-3(4H)-one] | – | ≥ 70 |
| Cc1ccc(C)c(-n2nc(C(F)(F)F)cc2-c2ccc3c(c2)NC(=O)CO3)c1 [Example 93, 6-(1-(2,5-dimethylphenyl)-3-(trifluoromethyl)-1H-pyrazol-5-yl)-2H-benzo[b][1,4]oxazin-3(4H)-one] | – | ≥ 70 |
| O=C1COc2ccc(-c3cc(C(F)(F)F)nn3-c3ccccc3)cc2N1 [Example 96, 6-(1-Phenyl-3-(trifluoromethyl)-1H-pyrazol-5-yl)-2H-benzo[b][1,4]oxazin-3(4H)-one] | – | ≥ 70 |
| O=C1COc2ccc(-c3cc(C(F)(F)C(F)(F)F)nn3-c3ccc(F)cc3)cc2N1 [Example 100, 6-(1-(4-Fluorophenyl)-3-(perfluoroethyl)-1H-pyrazol-5-yl)-2H-benzo[b][1,4]oxazin-3(4H)-one] | – | ≥ 70 |
| Cc1cc(F)ccc1-n1nc(C(F)(F)F)cc1-c1ccc2c(c1)NC(=O)CO2 [Example 107, 6-(1-(4-fluoro-2-methylphenyl)-3-(trifluoromethyl)-1H-pyrazol-5-yl)-2H-benzo[b][1,4]oxazin-3(4H)-one] | – | ≥ 70 |
| Cc1cc(F)ccc1-n1nc(C(F)(F)F)cc1-c1cc(F)c2c(c1)NC(=O)CO2 [Example 108, 8-fluoro-6-(1-(4-fluoro-2-methylphenyl)-3-(trifluoromethyl)-1H-pyrazol-5-yl)-2H-benzo[b][1,4]oxazin-3(4H)-one] | – | ≥ 70 |
| Cc1cc(F)ccc1-n1nc(C(F)(F)F)cc1-c1cc(C)c2c(c1)NC(=O)CO2 [Example 110, 6-(1-(4-fluoro-2-methylphenyl)-3-(trifluoromethyl)-1H-pyrazol-5-yl)-8-methyl-2H-benzo[b][1,4]oxazin-3(4H)-one] | – | ≥ 70 |
| O=C1COc2c(Cl)cc(C3=Cn4ccnc4SC3c3ccc(F)cc3)cc2N1 (stereo not shown) [Example 118, 8-chloro-6-[7-(4-fluorophenyl)-7H-imidazo[2,1-b][1,3]thiazin-6-yl]-2H-1,4-benzoxazin-3(4H)-one] | – | ≥ 70 |
| N#Cc1ccc2c(c1)SC(c1ccccc1)C(c1ccc3c(c1)NC(=O)CO3)=C2 (stereo not shown) [Example 130, 3-(3-oxo-3,4-dihydro-2H-1,4-benzoxazin-6-yl)-2-phenyl-2H-thiochromene-7-carbonitrile] | – | ≥ 70 |
| O=C1COc2ccc(C3=Cc4ccccc4SC3c3ccc(F)cc3)cc2N1 (stereo not shown) [Example 158, 6-[2-(4-fluorophenyl)-2H-thiochromen-3-yl]-2H-1,4-benzoxazin-3(4H)-one] | – | ≥ 70 |
| Cc1cc(C2=Nn3cnnc3SC2c2ccc(F)cc2)cc2c1OCC(=O)N2 (stereo not shown) [Example 185, 6-[7-(4-fluorophenyl)-7H-[1,2,4]triazolo[3,4-b][1,3,4]thiadiazin-6-yl]-8-methyl-2H-1,4-benzoxazin-3(4H)-one] | – | ≥ 70 |
| O=C1COc2c(F)cc(C3=Nn4cnnc4SC3c3ccc(F)cc3)cc2N1 (stereo not shown) [Example 195, 8-fluoro-6-[7-(4-fluorophenyl)-7H-[1,2,4]triazolo[3,4-b][1,3,4]thiadiazin-6-yl]-2H-1,4-benzoxazin-3(4H)-one] | – | ≥ 70 |
| Cc1cc(F)ccc1-n1nc(C(F)(F)F)cc1-c1cc(C)c2c(n1)NC(=O)CO2 [Example 255, 6-[1-(4-fluoro-2-methylphenyl)-3-(trifluoromethyl)-1H-pyrazol-5-yl]-8-methyl-2H-pyrido[3,2-b][1,4]oxazin-3(4H)-one] | – | ≥ 70 |
| Cc1nn(C)c(-c2ccc3c(c2)NC(=O)CO3)c1-c1ccccc1 [Example 288, 6-(1,3-dimethyl-4-phenyl-1H-pyrazol-5-yl)-2H-benzo[b][1,4]oxazin-3(4H)-one] | – | ≥ 70 |
| Cc1cc(F)ccc1-n1nc(C(C)(F)F)cc1-c1cc(C)c2c(c1)NC(=O)CO2 [Example 310, 6-(3-(1,1-Difluoroethyl)-1-(4-fluoro-2-methylphenyl)-1H-pyrazol-5-yl)-8-methyl-2H-benzo[b][1,4]oxazin-3(4H)-one] | – | ≥ 70 |
